Experiments:
Assay in all cases: selective drug sensitivity score (sDSS, relative to normal bone marrow) (sDSS (score)); higher = more potent and effective on the cell line relative to normal bone marrow cells
Settings in all cases: 72 h
697 = test system: 697
CCRF-CEM = test system: CCRF-CEM
COG-LL-317 = test system: COG-LL-317
COG-LL-332h = test system: COG-LL-332h
COG-LL-394h = test system: COG-LL-394h
COG-LL-402h = test system: COG-LL-402h
DND-41 = test system: DND-41
HAL-01 = test system: HAL-01
HPB-ALL = test system: HPB-ALL
KASUMI-2 = test system: KASUMI-2
KOPN-8 = test system: KOPN-8
LC4-1 = test system: LC4-1
MOLT-14 = test system: MOLT-14
MOLT-16 = test system: MOLT-16
MOLT-4 = test system: MOLT-4
P12-ICHIKAWA = test system: P12-ICHIKAWA
P30-OHKUBO = test system: P30-OHKUBO
SEM cells = test system: SEM cells
SUP-B15 = test system: SUP-B15
TANOUE = test system: TANOUE
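Note: ALL cell lines in 384-well plates, five doses spanning 10,000-fold, each plate scaled between vehicle and 100 µmol/L benzalkonium chloride controls, sDSS an adapted area-under-curve metric.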

| Structure (SMILES) | selective drug sensitivity score 697 | selective drug sensitivity score (CCRF-CEM) | selective drug sensitivity score (COG-LL-317) | selective drug sensitivity score (COG-LL-332h) | selective drug sensitivity score (COG-LL-394h) | selective drug sensitivity score (COG-LL-402h) | selective drug sensitivity score (DND-41) | selective drug sensitivity score (HAL-01) | selective drug sensitivity score (HPB-ALL) | selective drug sensitivity score (KASUMI-2) | selective drug sensitivity score (KOPN-8) | selective drug sensitivity score (LC4-1) | selective drug sensitivity score (MOLT-14) | selective drug sensitivity score (MOLT-16) | selective drug sensitivity score (MOLT-4) | selective drug sensitivity score (P12-ICHIKAWA) | selective drug sensitivity score (P30-OHKUBO) | selective drug sensitivity score (SEM cells) | selective drug sensitivity score (SUP-B15) | selective drug sensitivity score (TANOUE) |
| --- | --- | --- | --- | --- | --- | --- | --- | --- | --- | --- | --- | --- | --- | --- | --- | --- | --- | --- | --- | --- |
| N#Cc1ccnc(N2C(=O)CC[C@H]2C(=O)N(c2cncc(F)c2)[C@H](C(=O)NC2CC(F)(F)C2)c2ccccc2Cl)c1 [Ivosidenib] (top concentration 10000 nM) | 0.1 | 1 | 1.8 | 1 | 0 | 0 | 0 | 3.2 | 0 | 0.6 | 0.2 | 0 | 0.1 | 1 | 0.2 | 1 | 1.1 | 0 | 0 | 0 |
| C/C(=C\c1csc(C)n1)[C@@H]1C[C@@H]2O[C@]2(C)CCC[C@H](C)[C@H](O)[C@@H](C)C(=O)C(C)(C)[C@@H](O)CC(=O)N1 [Ixabepilone] (top concentration 1000 nM) | 4.68 | 3.08 | 2.98 | 4.08 | 2.18 | 1.58 | 1.28 | 1.78 | 7.08 | 1.48 | 6.98 | 5.08 | 4.58 | 4.68 | 3.98 | 2.58 | 3.78 | 3.58 | 5.08 | -1.92 |
| Nc1cc(COc2c(Cl)cc(C[C@H](N)C(=O)O)cc2Cl)c2oc(-c3ccccc3)nc2c1 [JPH203] (top concentration 5000 nM) | 0 | 0 | 0 | 0 | 0 | 0 | 0 | 0.4 | 0 | 0 | 0 | 0 | 0 | 0 | 0 | 0 | 2.2 | 0 | 0 | 0 |
| CS(=O)(=O)CCNCc1ccc(-c2ccc3ncnc(Nc4ccc(OCc5cccc(F)c5)c(Cl)c4)c3c2)o1 [Lapatinib] (top concentration 1000 nM) | 0 | 0 | 0 | 0 | 0 | 0 | 0 | 2.2 | 0 | 0 | 0 | 0 | 0 | 0 | 0 | 0 | 0.3 | 0 | 0 | 0 |
| Oc1ccc2c(c1)CC[C@H](c1ccccc1)[C@@H]2c1ccc(OCCN2CCCC2)cc1 [Lasofoxifene] (top concentration 1000 nM) | -1.28 | -1.08 | -1.28 | -1.28 | -1.28 | -0.18 | -1.28 | -0.08 | 7.52 | -1.28 | -1.28 | -1.28 | -1.28 | 1.12 | -1.28 | -1.28 | -1.28 | -1.28 | -1.28 | -1.08 |
| Cc1ccc(F)c(NC(=O)Nc2ccc(-c3cccc4[nH]nc(N)c34)cc2)c1 [Linifanib] (top concentration 1000 nM) | -1.12 | -1.02 | -1.12 | -1.12 | -1.12 | -1.12 | -0.02 | -1.12 | -1.12 | -1.12 | -1.12 | -1.12 | -1.12 | -1.12 | -1.12 | -1.12 | -1.12 | 1.28 | -1.12 | -1.12 |
| Cc1c(F)cc(C(=O)NC2CC2)cc1-c1ccc(C(=O)NCC(C)(C)C)cn1 [Losmapimod] (top concentration 10000 nM) | 2.72 | -0.18 | -0.18 | -0.18 | -0.18 | 0.42 | -0.18 | -0.08 | 2.32 | -0.18 | 4.42 | 3.32 | -0.18 | 0.12 | -0.18 | -0.18 | 7.82 | -0.18 | 0.42 | 1.32 |
| CNC(=O)c1cccc2cc(Oc3ccnc4cc(OCC5(N)CC5)c(OC)cc34)ccc12 [Lucitanib] (top concentration 10000 nM) | 5.48 | 3.08 | 2.78 | 2.88 | 1.58 | 3.58 | 5.08 | 3.88 | 3.18 | 3.48 | 6.38 | 1.68 | 2.28 | 3.98 | 4.18 | 1.28 | 5.88 | 4.98 | 3.48 | 0.28 |
| O=C1c2c(O)ccc(O)c2C(=O)c2c(NCCNCCO)ccc(NCCNCCO)c21 [Mitoxantrone] (top concentration 1000 nM) | 15.6 | 10.8 | 16.2 | 11.7 | 13.2 | 15.8 | 2.84 | 5.64 | -3.06 | 12.3 | 16.3 | 6.74 | 11.6 | 17 | 8.34 | 8.84 | 7.84 | 8.04 | 15.7 | -12.9 |
| CC1(C)CNc2cc(NC(=O)c3cccnc3NCc3ccncc3)ccc21 [Motesanib] (top concentration 10000 nM) | -0.22 | -0.22 | -0.22 | -0.22 | 0.78 | 1.98 | -0.22 | -0.22 | -0.22 | -0.22 | -0.22 | -0.22 | -0.22 | -0.22 | -0.22 | -0.22 | -0.22 | -0.22 | -0.22 | 1.58 |
| CCCN(CCC)C(=O)C1=Cc2ccc(-c3ccc(C(=O)N4CCCC4)cc3)cc2N=C(N)C1 [Motolimod] (top concentration 10000 nM) | -2.68 | -3.38 | -4.08 | -3.18 | 0.42 | -4.48 | -4.08 | -4.18 | -3.38 | -4.48 | 1.52 | -3.58 | -4.28 | -2.78 | -4.08 | -3.18 | -1.58 | -3.38 | -3.58 | -4.48 |
| Cc1cc(-c2ncc(CC(=O)Nc3ccc(-c4cnccn4)cn3)cc2C)ccn1 [NVP-LGK974] (top concentration 10000 nM) | 5.6 | -0.5 | -1.2 | 0.5 | 6.2 | -0.1 | 1.3 | -0.8 | -0.6 | 1 | 2.6 | 1.2 | 1 | 4.9 | 3.9 | 3.2 | 2.1 | 2.2 | 3.9 | 5.7 |
| CC1(C)NC(=O)N(c2ccc([N+](=O)[O-])c(C(F)(F)F)c2)C1=O [Nilutamide] (top concentration 10000 nM) | 0.22 | -0.48 | -0.48 | -0.48 | -0.48 | -0.48 | -0.38 | 2.82 | -0.48 | -0.48 | -0.48 | -0.48 | -0.48 | 2.72 | -0.48 | -0.48 | -0.18 | -0.48 | -0.48 | -0.48 |
| CNC(=O)c1ccc2cc([C@@]3(O)CCn4cncc43)ccc2c1 [Orteronel] (top concentration 10000 nM) | 0 | 0 | 0 | 0 | 0 | 0 | 0 | 0 | 0 | 4.6 | 1 | 4.9 | 0 | 0 | 0 | 0 | 0 | 0 | 2.1 | 0 |
| C=CCc1cccc(/C=N/NC(=O)CN2CCN(Cc3ccccc3)CC2)c1O [PAC-1] (top concentration 10000 nM) | 4.08 | 5.18 | 12.7 | 7.08 | 1.08 | 4.98 | 4.78 | 3.38 | 0.98 | -0.72 | 5.28 | 0.18 | 8.28 | 2.68 | 2.58 | 1.68 | 1.18 | 2.98 | 2.08 | 2.08 |
| O=C(Nc1cccnc1)N1CCC(Cc2cccc(Oc3ccc(C(F)(F)F)cn3)c2)CC1 [PF-3845] (top concentration 10000 nM) | 4.06 | -0.44 | 0.26 | 2.16 | 3.96 | -0.84 | -0.24 | -0.84 | -0.14 | -0.24 | 0.46 | -0.54 | 2.26 | 2.66 | 2.36 | 3.26 | 0.46 | 0.96 | 3.16 | 3.66 |
| COc1cc(Br)c(Nc2nc(-c3c(C)nc4ncccn34)cs2)c(Br)c1 [PTC-209] (top concentration 10000 nM) | 5.62 | 0.52 | 0.42 | -1.08 | -2.58 | -0.78 | -1.18 | 0.42 | 6.92 | -2.68 | 4.82 | 0.12 | -0.88 | 0.72 | -0.48 | 0.42 | 4.52 | 2.42 | -0.18 | -2.58 |
| C=CC(=O)N1CCC(Oc2cc3c(Nc4ccc(Cl)c(Cl)c4F)ncnc3cc2OC)CC1 [Poziotinib] (top concentration 1000 nM) | -0.22 | -0.22 | 2.68 | 1.48 | -0.22 | 1.58 | 2.08 | 1.18 | -0.12 | 5.98 | -0.22 | 0.78 | 0.78 | -0.22 | -0.22 | -0.22 | -0.22 | 3.88 | 2.98 | -0.22 |

— the supplement of paper PMC8967900
